# Data taken from US12077503B2, “Substituted cyclic amides and their use as herbicides” (FMC CORPORATION, priority 2015, dated 2024).
# Assays:
# Format in all cases: in vivo
# [1] = system: Kochia (Kochia scoparia); assay: Test A preemergence; details: Bassia scoparia, pre-emergence, 240 h
# Method in brief: (§1)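 Each rating is a visual injury score from 0 to 100 given about 10 d after treatment, judged against untreated controls kept alongside in the greenhouse. In loam soil–sand blend, seeds got a preemergence directed soil spray, while postemergence plants were 2 to 10 cm tall at spraying.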
# [2] = system: barnyardgrass (Echinochloa crus-galli); assay: Test A preemergence; details: Echinochloa crus-galli, pre-emergence, 240 h
# Method in brief: as §1
# [3] = system: giant foxtail (Setaria faberii); assay: Test A preemergence; details: Setaria faberi, pre-emergence, 240 h
# Method in brief: as §1
# [4] = system: pigweed (Amaranthus retroflexus); assay: Test A preemergence; details: Amaranthus retroflexus, pre-emergence, 240 h
# [5] = system: ragweed (common ragweed, Ambrosia elatior); assay: Test A preemergence; details: Ambrosia artemisiifolia, pre-emergence, 240 h
# Method in brief: as §1
# [6] = system: ryegrass, Italian (Italian ryegrass, Lolium multiflorum); assay: Test A preemergence; details: Lolium multiflorum, pre-emergence, 240 h, Preemergence, 125 g ai/ha; 0 to 100 scale (0 no effect, 100 complete control); read-out: Plant response rating, Ryegrass, Italian
# Method in brief: as §1
# [7] = system: Galium (catchweed bedstraw, Galium aparine); assay: Test A postemergence; details: Galium, post-emergence, 240 h, Postemergence
# Method in brief: as §1
# [8] = system: Kochia (Kochia scoparia); assay: Test A postemergence; details: Bassia scoparia, post-emergence, 240 h, Postemergence
# Method in brief: as §1
# [9] = system: barnyardgrass (Echinochloa crus-galli); assay: Test A postemergence; details: Echinochloa crus-galli, post-emergence, 240 h, Postemergence
# Method in brief: as §1
# [10] = system: corn (Zea mays); assay: Test A postemergence; details: Zea mays, post-emergence, 240 h, Postemergence
# Method in brief: as §1
# [11] = system: giant foxtail (Setaria faberii); assay: Test A postemergence; details: Setaria faberi, post-emergence, 240 h, Postemergence
# Method in brief: as §1
# [12] = system: pigweed (Amaranthus retroflexus); assay: Test A postemergence; details: Amaranthus retroflexus, post-emergence, 240 h, Postemergence
# Method in brief: as §1
# [13] = system: ragweed (common ragweed, Ambrosia elatior); assay: Test A postemergence; details: Ambrosia artemisiifolia, post-emergence, 240 h, Postemergence
# Method in brief: as §1
# [14] = system: ryegrass, Italian (Italian ryegrass, Lolium multiflorum); assay: Test A postemergence; details: Lolium multiflorum, post-emergence, 240 h, Postemergence
# Method in brief: as §1
# [15] = system: wheat (Triticum aestivum); assay: Test A postemergence; details: Triticum aestivum, post-emergence, 240 h, Postemergence
# Method in brief: as §1
structure (smiles),measurement,setting,value
CN1C[C@H](c2cccc(C(C)(F)F)c2)[C@@H](C(=O)Nc2cccc(F)c2F)C1=O [Compound 1316],pest or weed control at 500 g/ha,"[1]; 500 g ai/ha, preemergence, 0 to 100 scale where 0 is no effect and 100 is complete control, read-out: Kochia plant response rating",80%
same,pest or weed control at 125 g/ha,"[1]; Preemergence, 125 g ai/ha, 0 to 100 scale (0 no effect, 100 complete control), read-out: Plant response rating, Kochia",80%
same,pest or weed control at 500 g/ha,"[2]; 500 g ai/ha, preemergence, 0 to 100 scale where 0 is no effect and 100 is complete control, read-out: Barnyardgrass plant response rating",90%
same,pest or weed control at 125 g/ha,"[2]; Preemergence, 125 g ai/ha, 0 to 100 scale (0 no effect, 100 complete control), read-out: Plant response rating, Barnyardgrass",90%
same,pest or weed control at 500 g/ha,"[3]; 500 g ai/ha, preemergence, 0 to 100 scale where 0 is no effect and 100 is complete control, read-out: Foxtail, Giant plant response rating",90%
same,pest or weed control at 125 g/ha,"[3]; Preemergence, 125 g ai/ha, 0 to 100 scale (0 no effect, 100 complete control), read-out: Plant response rating, Foxtail, Giant",90%
same,pest or weed control at 500 g/ha,"[4]; 500 g ai/ha, preemergence, 0 to 100 scale where 0 is no effect and 100 is complete control, read-out: Pigweed plant response rating",80%
same,pest or weed control at 125 g/ha,"[4]; Preemergence, 125 g ai/ha, 0 to 100 scale (0 no effect, 100 complete control), read-out: Plant response rating, Pigweed",70%
same,pest or weed control at 500 g/ha,"[5]; 500 g ai/ha, preemergence, 0 to 100 scale where 0 is no effect and 100 is complete control, read-out: Ragweed plant response rating",70%
same,pest or weed control at 125 g/ha,"[5]; Preemergence, 125 g ai/ha, 0 to 100 scale (0 no effect, 100 complete control), read-out: Plant response rating, Ragweed",0%
same,pest or weed control at 125 g/ha,[6],70%
same,pest or weed control at 125 g/ha,"[7]; 125 g ai/ha, visual rating about 10 d after treatment, read-out: Galium plant response rating (0 to 100 scale)",60%
same,pest or weed control at 500 g/ha,"[7]; 500 g ai/ha, visual injury, 0 to 100 scale (0 no effect, 100 complete control), approx. 10 d, read-out: Plant response rating, Galium",60%
same,pest or weed control at 125 g/ha,"[8]; 125 g ai/ha, visual rating about 10 d after treatment, read-out: Kochia plant response rating (0 to 100 scale)",30%
same,pest or weed control at 500 g/ha,"[8]; 500 g ai/ha, visual injury, 0 to 100 scale (0 no effect, 100 complete control), approx. 10 d, read-out: Plant response rating, Kochia",40%
same,pest or weed control at 125 g/ha,"[9]; 125 g ai/ha, visual rating about 10 d after treatment, read-out: Barnyardgrass plant response rating (0 to 100 scale, 0 no effect, 100 complete control)",90%
same,pest or weed control at 500 g/ha,"[9]; 500 g ai/ha, visual injury, 0 to 100 scale (0 no effect, 100 complete control), approx. 10 d, read-out: Plant response rating, Barnyardgrass",90%
same,plant injury at 125 g/ha,"[10]; 125 g ai/ha, visual rating about 10 d after treatment, read-out: Corn plant response rating (0 to 100 scale)",80%
same,"Corn plant response rating (crop injury, 0 = no effect, 100 = complete kill) at 500 g/ha","[10]; 500 g ai/ha, visual injury, 0 to 100 scale (0 no effect, 100 complete control), approx. 10 d",80%
same,pest or weed control at 125 g/ha,"[11]; 125 g ai/ha, visual rating about 10 d after treatment, read-out: Foxtail, Giant plant response rating (0 to 100 scale)",90%
same,pest or weed control at 500 g/ha,"[11]; 500 g ai/ha, visual injury, 0 to 100 scale (0 no effect, 100 complete control), approx. 10 d, read-out: Plant response rating, Foxtail, Giant",90%
same,pest or weed control at 125 g/ha,"[12]; 125 g ai/ha, visual rating about 10 d after treatment, read-out: Pigweed plant response rating (0 to 100 scale)",50%
same,pest or weed control at 500 g/ha,"[12]; 500 g ai/ha, visual injury, 0 to 100 scale (0 no effect, 100 complete control), approx. 10 d, read-out: Plant response rating, Pigweed",60%
same,pest or weed control at 125 g/ha,"[13]; 125 g ai/ha, visual rating about 10 d after treatment, read-out: Ragweed plant response rating (0 to 100 scale)",30%
same,pest or weed control at 500 g/ha,"[13]; 500 g ai/ha, visual injury, 0 to 100 scale (0 no effect, 100 complete control), approx. 10 d, read-out: Plant response rating, Ragweed",70%
same,pest or weed control at 125 g/ha,"[14]; 125 g ai/ha, visual rating about 10 d after treatment, read-out: Ryegrass, Italian plant response rating (0 to 100 scale)",50%
same,pest or weed control at 500 g/ha,"[14]; 500 g ai/ha, visual injury, 0 to 100 scale (0 no effect, 100 complete control), approx. 10 d, read-out: Plant response rating, Ryegrass, Italian",80%
same,plant injury at 125 g/ha,"[15]; 125 g ai/ha, visual rating about 10 d after treatment, read-out: Wheat plant response rating (0 to 100 scale)",60%
same,plant injury at 500 g/ha,"[15]; 500 g ai/ha, visual injury, 0 to 100 scale (0 no effect, 100 complete control), approx. 10 d, read-out: Plant response rating, Wheat",80%
